Like-named read-outs stand apart in the source and are kept apart here. Numbered stars: 1 amine (or outer) side, 2 acyl side, 3 side chain; on linkers, the order of the positions; unused ones are H or OH. Bridge positions count the residues as written; N and C are the ends. Square brackets hold non-standard residues; d marks the D form. Peptide text beside a SMILES is read from it. * marks the point of attachment. X1 = C[C@@H](O)[C@@H](CS[*:1])N[*:2]; dGly(nOct) = CCCCCCCC[C@@H](N)C(=O)O; Hica(2S) = CC(C)C[C@H](O)C(=O)O; Octanoyl = CCCCCCCC(=O)*; Dab = NCC[C@H](N)C(=O)O
Experiments:
E. coli ATCC 25922 [1] = experiment: microbe, parasite or virus in culture; assay type: cell-based; settings: for antibacterial activity (MIC): ATCC 25922
Procedure: (§1) The antibacterial activity of the polymyxin lipopeptides was measured at ISGlobal following the microdilution test to determine the Minimal Inhibitory Concentrations (MIC) in sterile 96-well polypropilene plates. The concentration range was 32 a […] in Iso-Sensitest broth (Oxoid, ThermoFisher). The results were carried out in triplicate and the highest MIC is the one shown. Bacterial strains were grown in blood agar plates at 37° C. for 17 h. Fresh colonies were used to prepare a McFarland 0.5 solution that was finally added to the plates at 1 to 100 dilution
(§2) Samples of sensitive and multi-drug resistant bacteria were: E. coli ATCC 25922 E. coli MB1410; K. pneumoniae MB674; P. aeruginosa ATCC 27853; P. aeruginosa 36A.

E. coli MB1410 [2] = experiment: microbe, parasite or virus in culture; assay type: cell-based; settings: for antibacterial activity (MIC): MB1410
Procedure: as §1, §2

P. aeruginosa 36A [3] = experiment: microbe, parasite or virus in culture; assay type: cell-based; settings: for antibacterial activity (MIC): 36A
Procedure: as §1, §2

P. aeruginosa ATCC 27853 [4] = experiment: microbe, parasite or virus in culture; assay type: cell-based; settings: for antibacterial activity (MIC): ATCC 27853
Procedure: as §1, §2

K. pneumoniae MB674 [5] = assay type: cell-based; settings: for antibacterial activity (MIC): MB674
Procedure: as §1, §2

Swiss CD-1 female mice = experiment: Nephrotoxicity study, histopathological scoring of kidney lesions; assay type: in vivo; design: key to Group Score (GS): mean of per-animal summed 0-4 lesion scores; higher = more nephrotoxic; key to Animal Score (AS), Partial AS: sum of 0-4 lesion parameter scores; higher = more nephrotoxic; settings: for Mice found dead / Group Score (GS) / Cell desquamation, Partial AS / Cell vacuolization, Partial AS / Cloudy swelling, Partial AS / Tubular casts, Partial AS / Tubular dilation, Partial AS / Tubular necrosis, Partial AS / Animal Score (AS), Partial AS / AS, Partial AS / Tubular dilaion, Partial AS: total 72 mg/Kg; for Animal Score (AS), Partial AS: sum over all mice; for nephrotoxicity in mice, in words: nephrotoxicity tests carried out in mice, statement of the background
Procedure: Swiss CD-1 female mice weighing approximately 20-24 g (JANVIER Labs) were used, housed in an individually ventilated cage system under specific pathogen-free conditions, and water and food supplied ad libitum. This study plan and the conduct of the study were subjected to review by the Scientific Park of Barcelona Ethical Review Process with the current study procedure Code CEEA (AR) 9377-P2. Mice were administered at a dose of 12 mg/Kg every 2 hours for a total of 6 administrations (total dose 72 mg/Kg), unless otherwise stated. After 20 h, animals were anesthesized with isoflurane, kidneys extracted and prepared for histopathological evaluation, and finally animales were sacrificed. Kidney lesions (tubule dilation, necrosis, tubule casts, cell vacuolization, cell desquamation, and cell swelling) were quantified by microscopical observation (see for instance, Roberts, ACS Infect. Dis., 2015, 1, 568). Each one of these parameters was scored with values from 0 to 4 for each animal, as a global result of observations in kidney. Partial scores have been added up to obtain a final score for each animal (Animal Score, AS). The mean of animal score has been obtained to define the Group Score (GS). The higher the score, the more nephrotoxic a compound is. The nephrotoxicity score has been determined as according to the following table of approximated values: […]

E. coli ATCC 25922 [6] = settings: comparative examples, extracted from Scientific Reports 5:10558 or WO2017093210A1; cited from earlier work
E. coli MB1410 [7] = settings: comparative examples, extracted from Scientific Reports 5:10558 or WO2017093210A1; cited from earlier work
K. pneumoniae MB674 [8] = settings: comparative examples, extracted from Scientific Reports 5:10558 or WO2017093210A1; cited from earlier work
P. aeruginosa ATCC 27853 [9] = settings: comparative examples, extracted from Scientific Reports 5:10558 or WO2017093210A1; cited from earlier work
P. aeruginosa 36A [10] = settings: comparative examples, extracted from Scientific Reports 5:10558 or WO2017093210A1; cited from earlier work
[11] = in vivo; cited from earlier work
[12] = cited from earlier work
[13] = Table 6, 12 mg/Kg every 2 hours × 6, subcutaneous
[14] = Table 6, mean of animal scores, 12 mg/Kg every 2 hours × 6, subcutaneous
[15] = Table 6, sum of mouse scores, 12 mg/Kg every 2 hours × 6, subcutaneous
[16] = Table 8, 12 mg/Kg every 2 hours × 6 sc, 3 mice

Compound | Mice found dead (Swiss CD-1 female mice; [13]) | Group Score (GS) (Swiss CD-1 female mice; [14]) | Cell desquamation, Partial AS (Swiss CD-1 female mice; [15]) | Cell vacuolization, Partial AS (Swiss CD-1 female mice; [15]) | Cloudy swelling, Partial AS (Swiss CD-1 female mice; [15]) | Tubular casts, Partial AS (Swiss CD-1 female mice; [15]) | Tubular dilation, Partial AS (Swiss CD-1 female mice; [15]) | Tubular necrosis, Partial AS (Swiss CD-1 female mice; [15]) | Animal Score (AS), Partial AS (Swiss CD-1 female mice; [13]) | antibacterial activity (MIC) (E. coli ATCC 25922 [6]) [µg/mL] | antibacterial activity (MIC) (E. coli MB1410 [7]) [µg/mL] | antibacterial activity (MIC) (K. pneumoniae MB674 [8]) [µg/mL] | antibacterial activity (MIC) (P. aeruginosa ATCC 27853 [9]) [µg/mL] | antibacterial activity (MIC) (P. aeruginosa 36A [10]) [µg/mL] | Group Score (GS) (Swiss CD-1 female mice; [16]) | Mice found dead (Swiss CD-1 female mice; [16]) | AS, Partial AS (Swiss CD-1 female mice; [16]) | Cell vacuolization, Partial AS (Swiss CD-1 female mice; [16]) | Tubular dilaion, Partial AS (Swiss CD-1 female mice; [16]) | Tubular necrosis, Partial AS (Swiss CD-1 female mice; [16]) | further results
CCCCCCCC(=O)N[C@@H](CCN)C(=O)N[C@H](C(=O)N[C@@H](CCN)C(=O)N[C@H]1CSSC[C@H]([C@@H](C)O)NC(=O)[C@H](CCN)NC(=O)[C@H](CCN)NC(=O)[C@H](CC(C)C)OC(=O)[C@@H](Cc2ccccc2)NC(=O)[C@H](CCN)NC1=O)[C@@H](C)O [Example 9, Octanoyl-Dab-Thr-Dab-cyclo(S-S)[Cys-Dab-DPhe-OLe-Dab-Dab-Ttr]] (Octanoyl-[Dab]T[Dab]C[Dab][dF][Hica(2S)][Dab][Dab]; linker 4-C via X1) | 1 | 0 | 0 | 0 | 0 | 0 | 0 | 0 | 0 |  |  |  |  |  |  |  |  |  |  |  | antibacterial activity (MIC) (E. coli ATCC 25922 [1]): 4 µg/mL; antibacterial activity (MIC) (E. coli MB1410 [2]): 1 µg/mL; antibacterial activity (MIC) (P. aeruginosa 36A [3]): 2 µg/mL; antibacterial activity (MIC) (P. aeruginosa ATCC 27853 [4]): 2 µg/mL; antibacterial activity (MIC) (K. pneumoniae MB674 [5]): 1 µg/mL
CCCCCCCC[C@@H](N)C(=O)N[C@H](C(=O)N[C@@H](CCN)C(=O)N[C@H]1CSSC[C@H]([C@@H](C)O)NC(=O)[C@H](CCN)NC(=O)[C@H](CCN)NC(=O)[C@H](CC(C)C)OC(=O)[C@@H](Cc2ccccc2)NC(=O)[C@H](CCN)NC1=O)[C@@H](C)O [Example 10, DAdec-Thr-Dab-cyclo(S-S)[Cys-Dab-DPhe-Ole-Dab-Dab-Ttr]] (H-[dGly(nOct)]T[Dab]C[Dab][dF][Hica(2S)][Dab][Dab]; linker 4-C via X1) | None | 0 | 0 | 0 | 0 | 0 | 0 | 0 | 0 |  |  |  |  |  |  |  |  |  |  |  | antibacterial activity (MIC) (E. coli ATCC 25922 [1]): 2 µg/mL; antibacterial activity (MIC) (E. coli MB1410 [2]): 1 µg/mL; antibacterial activity (MIC) (P. aeruginosa 36A [3]): 2 µg/mL; antibacterial activity (MIC) (P. aeruginosa ATCC 27853 [4]): 2 µg/mL; antibacterial activity (MIC) (K. pneumoniae MB674 [5]): 2 µg/mL
Colistin [Col.] |  |  |  |  |  |  |  |  |  | 0.5 | 0.5 | 1 | 2 | 1 |  |  |  |  |  |  | MIC (E. coli ATCC 25922 [1]; resistance profile of strain E. coli ATCC 25922, Table 3): 0.5 µg/mL; MIC (E. coli MB1410 [2]; resistance profile of strain E. coli MB1410, Table 3): 0.75 µg/mL; MIC (P. aeruginosa 36A [3]; resistance profile of strain P. aeruginosa 36A, Table 3): 1 µg/mL; MIC (P. aeruginosa ATCC 27853 [4]; resistance profile of strain P. aeruginosa ATCC 27853, Table 3): 2 µg/mL; MIC (K. pneumoniae MB674 [5]; resistance profile of strain K. pneumoniae MB674, Table 3): 0.2 µg/mL
DAoc-Thr-Dab-cyclo(S-S)[Cys-Dab-DAoc-Leu-Dab-Dab-DCys] [compound 4] |  |  |  |  |  |  |  |  |  | 4 | 4 | 2 | 2 | 2 | All mice dead | 3 |  |  |  |  | nephrotoxicity in mice, in words (Swiss CD-1 female mice): showed nephrotoxicity
DAoc-Thr-Dab-cyclo(S-S)[Cys-Dab-DNIe-Leu-Dab-Dab-DCys] [compound 5] |  |  |  |  |  |  |  |  |  | 16 | 8 | 8 | 4 | 2 | 4.3 | none | 13 | 0 | 6 | 0 | Cloudy swelling, Partial AS (Swiss CD-1 female mice; [16]): 4; Tubular casts, Partial AS (Swiss CD-1 female mice; [16]): 3; nephrotoxicity in mice, in words (Swiss CD-1 female mice): showed nephrotoxicity
Decanoyl-Dab-Thr-Dab-cyclo(S-S)[Cys-Dab-DPhe-Nle-Dab-Dab-DCys] [compound 2] |  |  |  |  |  |  |  |  |  |  |  |  |  |  | 4 | 2 dead | 4 | 0 | 1 | 0 | Cloudy swelling, Partial AS (Swiss CD-1 female mice; [16]): 3; Tubular casts, Partial AS (Swiss CD-1 female mice; [16]): 0; nephrotoxicity in mice, in words (Swiss CD-1 female mice; listed as Decanoyl-Dab-Thr-Dab-ciclo(S—S)[Cys-Dab-DPhe-Nle-Dab-Dab-DCys)): showed toxicity; nephrotoxicity in mice, in words (Swiss CD-1 female mice; listed as Decanoyl-Dab-Thr-Dab-cyclo(S—S)[Cys-Dab-DPhe-Leu-Dab-Dab-DCys]): showed nephrotoxicity; toxicity in acute toxicity tests, in words [11]: did not showed toxicity
Heptanoyl-Dab-Thr-Dab-cyclo(S-S)[Cys-Dab-DAoc-Nle-Dab-Dab-DCys] [compound 3] |  |  |  |  |  |  |  |  |  | 16 | 2 | 2 | 2 | 2 | 8 | 2 dead | 8 | 3 | 2 | 3 | nephrotoxicity in mice, in words (Swiss CD-1 female mice): showed nephrotoxicity
Polymyxin B [PxB] | None | 3.4 | 0 | 1 | 21 | 3 | 1 | 1 | 27 | 0.25 | 0.5 | 0.25 | 1 | 1 | 2.3 | none | 7 | 0 | 1 | 0 | Cloudy swelling, Partial AS (Swiss CD-1 female mice; [16]): 6; Tubular casts, Partial AS (Swiss CD-1 female mice; [16]): 0; kidney concentration relative to serum concentration ([12]; after 6 h): more than 30 time; period of accumulation in kidneys ([12]; long after administration, when barely detectable in serum): at least 48 h

— patent publication US20210253520A1, “POLYMYXIN-BASED COMPOUNDS USEFUL AS ANTIBACTERIAL AGENTS” (UNIVERSITAT DE BARCELONA, priority 2018, published 2021)
